Each structure is given as a SMILES string.

This assay has as its target Heat shock protein HSP90 (Homo sapiens, UniProt P07900+P08238). The assay can be described thus: Binding affinity to recombinant N-terminal Hsp90 (unknown origin) by SPR method. The assay is classed as protein assay.
Take `Cc1cccc(Cc2n[nH]c3cc(O)c(C(=O)N(C)c4ccc(COCCN(C)C)cc4)cc23)c1`: the Kd was 11.5 nM.

Regarding `Cc1cccc(Cc2n[nH]c3cc(O)c(C(=O)N(C)c4ccc5c(c4)OCCO5)cc23)c1`, the Kd amounted to 38.6 nM.

Regarding `COc1cccc(N(C)C(=O)c2cc3c(Cc4cccc(C)c4)n[nH]c3cc2O)c1`, the Kd was 43 nM.

As for `COc1ccc(N(C)C(=O)c2cc3c(Cc4cccc(C)c4)n[nH]c3cc2O)cc1Cl`, the Kd is 17.2 nM.

Regarding `COc1cccc(Cc2n[nH]c3cc(O)c(C(=O)N(C)c4ccc(N5CCOCC5)cc4)cc23)c1`, the Kd came out at 12 nM.

With `Cc1cccc(Cc2n[nH]c3cc(O)c(C(=O)N(C)c4ccc(Br)cc4)cc23)c1`, the Kd is 155.3 nM.

`CN(C(=O)c1cc2c(CC3CCCC3)n[nH]c2cc1O)c1ccc(N2CCOCC2)cc1`: the Kd was 7.8 nM.

As for `Cc1cccc(Cc2n[nH]c3cc(O)c(C(=O)N(C)c4ccc(CN5CCOCC5)cc4)cc23)c1`, the Kd came to 33.4 nM.

In the case of `CCCCc1n[nH]c2cc(O)c(C(=O)N(C)c3ccc(N4CCOCC4)cc3)cc12`, the Kd is listed as 6.6 nM.

With `CC(=O)N1CCc2ccc(N(C)C(=O)c3cc4c(Cc5cccc(C)c5)n[nH]c4cc3O)cc21`, the Kd stood at 51.8 nM.

Regarding `CN(C(=O)c1cc2c(C(=O)N3CCCCC3)n[nH]c2cc1O)c1ccc(N2CCOCC2)cc1`, the Kd was 42 nM.

`CC(=O)N1CCc2cc(N(C)C(=O)c3cc4c(Cc5cccc(C)c5)n[nH]c4cc3O)ccc21`: the Kd turned out to be 50.9 nM.

On to `Cc1cccc(Cc2n[nH]c3cc(O)c(C(=O)N(C)c4cccc(F)c4)cc23)c1`, for which the Kd was determined as 61.2 nM.

Take `Cc1ccccc1-n1c(-c2cc(C(=O)N(C)Cc3cccc(-c4cccnc4)c3)c(O)cc2O)n[nH]c1=O`: the Kd was 34.6 nM.

Turning to `CN(C(=O)c1cc2c(CC3CCCCC3)n[nH]c2cc1O)c1ccc(N2CCOCC2)cc1`, the Kd turned out to be 42 nM.

For `Cc1cccc(Cc2n[nH]c3cc(O)c(C(=O)N(C)c4ccc(Cl)cc4)cc23)c1`, the Kd stood at 152.9 nM.

`Cc1cccc(Cc2n[nH]c3cc(O)c(C(=O)N(C)c4ccc(CNS(C)(=O)=O)cc4)cc23)c1`: the Kd is given as 16 nM.

In the case of `CC(=O)c1ccc(N(C)C(=O)c2cc3c(Cc4cccc(C)c4)n[nH]c3cc2O)cc1`, the Kd is recorded as 25.4 nM.

On to `Cc1cccc(Cc2n[nH]c3cc(O)c(C(=O)N(C)c4cccc(C)c4)cc23)c1`, for which the Kd turned out to be 70 nM.

For `COc1ccc(N(C)C(=O)c2cc3c(Cc4cccc(C)c4)n[nH]c3cc2O)cc1`, the dissociation constant Kd was 24 nM.

Take `Cc1cccc(Cc2n[nH]c3cc(O)c(C(=O)N(C)c4ccc(OCCCC#N)cc4)cc23)c1`: the Kd turned out to be 32.5 nM.

Consider `Cc1cccc(Cc2n[nH]c3cc(O)c(C(=O)N(C)c4ccc(F)cc4)cc23)c1`, for which the Kd is recorded as 73 nM.

`CCCc1n[nH]c2cc(O)c(C(=O)N(C)c3ccc(N4CCOCC4)cc3)cc12`: the Kd is given as 5.4 nM.

Turning to `Cc1cccc(Cc2n[nH]c3cc(O)c(C(=O)N(C)c4cccc(Cl)c4)cc23)c1`, the Kd amounted to 89 nM.
